{
  "source": "patent US20100316728A1",
  "about": "“Therapeutic mask and Method of Treatment Employing the Same” (priority 2009, published 2010)",
  "assay_type_in_all_cases": "in vivo, human",
  "key": {"patients [1]": {"test_system": "patients", "assay": "Pain level felt by patients using the mask (with Lidocaine)"}, "patients [2]": {"test_system": "patients", "assay": "Patient questionnaire on mask application, removal and skin reactions (dryness, burning, redness, itching, stinging)", "conditions": "per patient, yes/no"}, "patients [3]": {"test_system": "patients", "assay": "Numbness felt by patients using the mask (with Lidocaine)", "conditions": "per patient", "text": "A separate and distinct benefit has been discovered through the use of the instant invention. […] This aids the speed in which the process can be performed on a patient."}, "[4]": {"conditions": "Pain Rate section, Results with Lidocaine, right side = side without mask, per patient"}, "[5]": {"conditions": "Results with Lidocaine, left side, mask on one side only, one value per patient, 10 = highest pain"}, "[6]": {"conditions": "Results with Lidocaine, right side, mask on one side only, one value per patient, 10 = highest pain"}, "[7]": {"conditions": "Table IX, CO2 procedure, unmasked side, per patient"}, "[8]": {"conditions": "Table VIII Pain Data, unmasked side, per patient"}, "[9]": {"conditions": "Table X, CO2 procedure, unmasked side, per patient"}, "[10]": {"conditions": "Table XII, unmasked side, 0-10 scale, per patient"}, "[11]": {"conditions": "Table IX, CO2 procedure, unmasked side"}, "[12]": {"conditions": "Table X, CO2 procedure, unmasked side"}, "[13]": {"conditions": "Table XI, unmasked side, 0-10 scale"}},
  "note": "Several values for one entry are separate records, joined by “and”; a condition that tells them apart may be missing. Equal values may be shown once.",
  "data": [
    {"compound": "CCN(CC)CC(=O)Nc1c(C)cccc1C", "note": "[Lidocaine]", "values": [
      {"measurement": "Pain After proc. Cheeks (Left Side)", "setting": "patients [1]; 1-10 scale, 1 least pain, 10 highest, after Fraxel or CO2 procedure, cheeks, left side", "result": "10 and 6 and 5"},
      {"measurement": "Pain After proc. Chin (Left Side)", "setting": "patients [1]; 1-10 scale, 1 least pain, 10 highest, after Fraxel or CO2 procedure, chin, left side", "result": "10 and 6 and 5"},
      {"measurement": "Pain After proc. Forehead (Left Side)", "setting": "patients [1]; 1-10 scale, 1 least pain, 10 highest, after Fraxel or CO2 procedure, forehead, left side", "result": "10 and 6"},
      {"measurement": "Average Right Side", "setting": "patients [1]; Pain Rate section, Results with Lidocaine, average pain, right side = side without mask, per patient", "result": "8.00 and 5.00 and 9.00 and 2.00"},
      {"measurement": "Pain After proc. Cheeks (Right Side)", "setting": "patients [1]; [4]", "result": "8 and 5 and 9 and 2"},
      {"measurement": "Pain After proc. Chin (Right Side)", "setting": "patients [1]; [4]", "result": "8 and 5 and 9 and 2"},
      {"measurement": "Pain After proc. Forehead (Right Side)", "setting": "patients [1]; [4]", "result": "8 and 5 and 9 and 2"},
      {"measurement": "Pain After proc. Mouth (Right Side)", "setting": "patients [1]; [4]", "result": "8 and 5 and 9 and 2"},
      {"measurement": "Average Left Side", "setting": "patients [1]; Results with Lidocaine, average pain of mouth, cheeks, forehead, chin, left side, per patient", "result": "10.00 and 6.00 and 5.00"},
      {"measurement": "Average Right Side", "setting": "patients [1]; Results with Lidocaine, average pain of mouth, cheeks, forehead, chin, right side, per patient", "result": "4.00 and 8.25 and 9.25 and 9.00 and 4.50 and 10.00"},
      {"measurement": "Pain After proc. Cheeks (Left Side)", "setting": "patients [1]; [5]", "result": "10 and 6 and 5"},
      {"measurement": "Pain After proc. Chin (Left Side)", "setting": "patients [1]; [5]", "result": "10 and 6 and 5"},
      {"measurement": "Pain After proc. Forehead (Left Side)", "setting": "patients [1]; [5]", "result": "10 and 6 (2×)"},
      {"measurement": "Pain After proc. Mouth (Left Side)", "setting": "patients [1]; [5]", "result": "10 and 6 and 4"},
      {"measurement": "Pain After proc. Cheeks (Right Side)", "setting": "patients [1]; [6]", "result": "4 and 7 and 8 and 9 (2×) and 10"},
      {"measurement": "Pain After proc. Chin (Right Side)", "setting": "patients [1]; [6]", "result": "4 and 6 (2×) and 8 and 9 and 10"},
      {"measurement": "Pain After proc. Forehead (Right Side)", "setting": "patients [1]; [6]", "result": "4 (2×) and 10 (2×) and 8 and 9"},
      {"measurement": "Pain After proc. Mouth (Right Side)", "setting": "patients [1]; [6]", "result": "4 (2×) and 10 (2×) and 8 and 9"},
      {"measurement": "Pain After proc. Cheeks (Unmasked Side)", "setting": "patients [1]; [7]", "result": "8 (3×) and 9 and 2 and 5 and 6"},
      {"measurement": "Pain After proc. Chin (Unmasked Side)", "setting": "patients [1]; [7]", "result": "8 (3×) and 9 and 2 and 5 and 6"},
      {"measurement": "Pain After proc. Forehead (Unmasked Side)", "setting": "patients [1]; [7]", "result": "8 (3×) and 9 and 2 and 5 and 7"},
      {"measurement": "Pain After proc. Mouth (Unmasked Side)", "setting": "patients [1]; [7]", "result": "8 (3×) and 9 and 2 and 5 and 6"},
      {"measurement": "Average Pain (Unmasked Side)", "setting": "patients [1]; [8]", "result": "8 (3×) and 9 and 2 and 5 and 6.3"},
      {"measurement": "Pain After proc. Cheeks (Unmasked Side)", "setting": "patients [1]; [8]", "result": "8 (3×) and 9 and 2 and 5 and 6"},
      {"measurement": "Pain After proc. Chin (Unmasked Side)", "setting": "patients [1]; [8]", "result": "8 (3×) and 9 and 2 and 5 and 6"},
      {"measurement": "Pain After proc. Forehead (Unmasked Side)", "setting": "patients [1]; [8]", "result": "8 (3×) and 9 and 2 and 5 and 7"},
      {"measurement": "Pain After proc. Mouth (Unmasked Side)", "setting": "patients [1]; [8]", "result": "8 (3×) and 9 and 2 and 5 and 6"},
      {"measurement": "Pain After proc. Cheeks (Unmasked Side)", "setting": "patients [1]; [9]", "result": "8 (3×) and 9 and 2 and 5 and 6"},
      {"measurement": "Pain After proc. Chin (Unmasked Side)", "setting": "patients [1]; [9]", "result": "8 (3×) and 9 and 2 and 5 and 6"},
      {"measurement": "Pain After proc. Forehead (Unmasked Side)", "setting": "patients [1]; [9]", "result": "8 (3×) and 9 and 2 and 5 and 7"},
      {"measurement": "Pain After proc. Mouth (Unmasked Side)", "setting": "patients [1]; [9]", "result": "8 (3×) and 9 and 2 and 5 and 6"},
      {"measurement": "Average Pain (Unmasked Side)", "setting": "patients [1]; Table XII summary, 0-10 scale, per patient", "result": "8 (3×) and 9 and 2 and 5 and 6.3"},
      {"measurement": "Average Pain (Unmasked Side)", "setting": "patients [1]; [10]", "result": "8 (3×) and 9 and 2 and 5 and 6.3"},
      {"measurement": "Pain After proc. Cheeks (Unmasked Side)", "setting": "patients [1]; [10]", "result": "8 (3×) and 9 and 2 and 5 and 6"},
      {"measurement": "Pain After proc. Chin (Unmasked Side)", "setting": "patients [1]; [10]", "result": "8 (3×) and 9 and 2 and 5 and 6"},
      {"measurement": "Pain After proc. Forehead (Unmasked Side)", "setting": "patients [1]; [10]", "result": "8 (3×) and 9 and 2 and 5 and 7"},
      {"measurement": "Pain After proc. Mouth (Unmasked Side)", "setting": "patients [1]; [10]", "result": "8 (3×) and 9 and 2 and 5 and 6"},
      {"measurement": "Dryness Right side", "setting": "patients [2]", "result": "no"},
      {"measurement": "Burning Right", "setting": "patients [2]; right side", "result": "no (2×) and yes"},
      {"measurement": "Itching Right", "setting": "patients [2]; right side", "result": "no"},
      {"measurement": "Redness Right", "setting": "patients [2]; right side", "result": "yes (2×) and no"},
      {"measurement": "Stinging Right", "setting": "patients [2]; right side", "result": "yes (2×) and no"},
      {"measurement": "Numbness Cheeks- (Left Side)", "setting": "patients [3]; 1-10 scale, cheeks, left side", "result": "4 and 8 and 9 and 3"},
      {"measurement": "Numbness Cheeks- (Right Side)", "setting": "patients [3]; 1-10 scale, cheeks, right side", "result": "7 (3×) and 3 and 5 and 4 and 6"},
      {"measurement": "Numbness- Chin (Left Side)", "setting": "patients [3]; 1-10 scale, chin, left side", "result": "4 and 8 and 9 and 7"},
      {"measurement": "Numbness- Chin (Right Side)", "setting": "patients [3]; 1-10 scale, chin, right side", "result": "3 and 4 (2×) and 5 and 7 (2×) and 6"},
      {"measurement": "Numbness- Forehead (Left Side)", "setting": "patients [3]; 1-10 scale, forehead, left side", "result": "4 and 8 and 9 and 2"},
      {"measurement": "Numbness- Forehead (Right Side)", "setting": "patients [3]; 1-10 scale, forehead, right side", "result": "4 (2×) and 3 and 6 (2×) and 7 and 8"},
      {"measurement": "Numbness- Mouth (Left Side)", "setting": "patients [3]; 1-10 scale, mouth, left side", "result": "4 and 8 and 9 and 5"},
      {"measurement": "Numbness- Mouth (Right Side)", "setting": "patients [3]; 1-10 scale, mouth, right side", "result": "5 and 3 and 6 (2×) and 7 and 4 and 8"},
      {"measurement": "Numbness Cheeks- (Unmasked Side)", "setting": "patients [3]; [11]", "result": "8 (3×) and 6 (4×)"},
      {"measurement": "Numbness- Chin (Unmasked Side)", "setting": "patients [3]; [11]", "result": "9 and 6 (4×) and 8 (2×)"},
      {"measurement": "Numbness- Forehead (Unmasked Side)", "setting": "patients [3]; [11]", "result": "9 and 6 (4×) and 8 (2×)"},
      {"measurement": "Numbness- Mouth (Unmasked Side)", "setting": "patients [3]; [11]", "result": "8 (3×) and 6 (4×)"},
      {"measurement": "Numbness Cheeks- (Unmasked Side)", "setting": "patients [3]; [12]", "result": "8 (3×) and 6 (4×)"},
      {"measurement": "Numbness- Chin (Unmasked Side)", "setting": "patients [3]; [12]", "result": "9 and 6 (4×) and 8 (2×)"},
      {"measurement": "Numbness- Forehead (Unmasked Side)", "setting": "patients [3]; [12]", "result": "9 and 6 (4×) and 8 (2×)"},
      {"measurement": "Numbness- Mouth (Unmasked Side)", "setting": "patients [3]; [12]", "result": "8 (3×) and 6 (4×)"},
      {"measurement": "Numbness Average Unmasked Side", "setting": "patients [3]; Table XI summary, 0-10 scale", "result": "8.5 and 6 (4×) and 8 (2×)"},
      {"measurement": "Average", "setting": "patients [3]; Table XI, average numbness, unmasked side, 0-10 scale", "result": "8.5 and 6 (4×) and 8 (2×)"},
      {"measurement": "Numbness Cheeks- (Unmasked Side)", "setting": "patients [3]; [13]", "result": "8 (3×) and 6 (4×)"},
      {"measurement": "Numbness- Chin (Unmasked Side)", "setting": "patients [3]; [13]", "result": "9 and 6 (4×) and 8 (2×)"},
      {"measurement": "Numbness- Forehead (Unmasked Side)", "setting": "patients [3]; [13]", "result": "9 and 6 (4×) and 8 (2×)"},
      {"measurement": "Numbness- Mouth (Unmasked Side)", "setting": "patients [3]; [13]", "result": "8 (3×) and 6 (4×)"}
    ]}
  ]
}
